Usually EC50 stands for the midpoint of the concentration-response curve. What is called IC50 is the concentration that gives 50% inhibition. Low values mean higher potency, high ones lower potency. The term melting point denotes the temperature, or range, at which the solid turns liquid.

Molecules are shown by their SMILES.

Drawing on patent publication US8067615B2, “Sulphonylpyrroles” (4SC AG, priority 2004, dated 2011), this text covers EC50, IC50 and melting point for 24 compounds.

Series [1] relates to histone H3K23 hyperacetylation in HeLa cervical carcinoma cells. Description: Cellular histone H3 hyperacetylation assay. Type of series: cell-based. Particulars: Homo sapiens, 24 h with compound, read-out: Induction of histone H3K23 hyperacetylation EC50. From the text: To assess the cellular efficacy of an histone deacetylase inhibitor in vitro, an assay was set up in black clear-bottom 96-well plates and optimized for use on the Cellomics “ArrayScan II” platform for a quantitative calculation of […] acetylation. The protocol uses a polyclonal rabbit antibody, specifically binding to acetylated lysine 23 of human histone H3 on fixed cells with an Alexa Fluor 488 labeled goat anti rabbit-IgG used for counterstaining (Braunger et al. AACR annual conference 2003, Abstract 4556). 5×10^3 HeLa cervical carcinoma cells/well (ATCC CCL-2) in 200 μl Dulbecco's modified Eagle's medium (DMEM) containing 10% fetal calf serum were seeded at day 1 in Packard view plates and incubated for 24 h under standard cell culture conditions. On day 2, 2 μl test compound (100× final concentration) was added and incubation continued for further 24 h. On day 3, the culture medium was discarded and attached cells fixed for 15 min at room temperature by addition of 100 μl fixation buffer (3.7% v:v formaldehyde in phosphate buffered saline/PBS). After discarding the fixation buffer and one wash with PBS, cells were permeabilized at room temperature by addition of 100 μl/well permeabilization buffer (30.8 mM NaCl, 0.54 mM Na2HPO4, 0.31 mM KH2PO4, 5% v:v Triton X-100) for 15 min at room temperature. After discarding the permeabilization buffer and addition of 100 μl/well blocking solution (PBS with 0.05% v:v Tween 20 and 5% w:v milk powder) for 30 min at room temperature, the 1st antibody (anti-K23 histone H3 antibody, Cell Signaling No. 9674) in blocking solution (50 μl/well) was added. After incubation for 1 h at 37° C., the wells were washed 5 times for 5 min at room temperature with wash buffer (PBS with 0.05% v:v Tween 20) before addition of the 2nd antibody (goat-anti-rabbit Alexa Fluor 488; MoBiTec No. A-11008) in blocking solution (50 μl/well). After further incubation for 30 min at 37° C., wells were washed 5 times for 5 min at RT with 100 μl wash buffer at room temperature. Finally, 100 μl/well PBS were added and image analysis performed on the Cellomics “ArrayScan II” platform. For calculation of EC50 values, the nuclear fluorescence in cells treated with and without a reference HDAC inhibitor like SAHA or NVP-LBH-589 were taken as a positive and negative control, respectively. For EC50 determination, the percentage of positive cells was determined and EC50 calculation done from concentration-effect curves by means of non-linear regression.

In series [2] the test system is HeLa cervical carcinoma cells. Description: Cellular cytotoxicity assay (Alamar Blue / Resazurin). The class given is cell-based. To be noted: Homo sapiens, 48 hours incubation. The method, then: The anti-proliferative activity of the histone deacetylase inhibitory compounds as described herein, was evaluated with the HeLa cervical carcinoma cell line (ATCC CCL2) using the Alamar Blue (Resazurin) cell viability assay (O'Brien et al. Eur J Biochem 267, 5421-5426, 2000). Resazurin is reduced to the fluorescent resorufin by cellular dehydrogenase activity, correlating with viable, proliferating cells. Test compounds were dissolved as 10 mM solutions in dimethylsulfoxide (DMSO) and subsequently diluted in semi-logarithmic steps. HeLa cells were seeded into 96 well flat bottom plates at a density of 3000 cells per well in a volume of […] per well. 24 hours after seeding 1 μl each of the compound dilutions were added into each well of the 96 Well plate. Each compound dilution was tested as quadruplicates. Wells containing untreated control cells were filled with 200 μl DMEM medium containing 0.5% v:v DMSO. The cells were then incubated with the substances for 48 hours at 37° C. in a humidified atmosphere containing 5% carbon dioxide. To determine the viability of the cells, 20 μl of an Resazurin solution (Sigma; 90 mg/l) were added. After 4 hours incubation at 37° C. the fluorescence was measured at an […] of 544 nm and an emission of 590 nm. For the calculation of the cell viability the emission value from untreated cells was set as 100% viability and the emission rates of treated cells were set in relation to the values of untreated cells. Viabilities were expressed as % values. The corresponding IC50 values of the compounds for cytotoxic activity are determined from the concentration-effect curves by means of non-linear regression.
For orientation: Alamar Blue is a resazurin reagent that responds to reducing activity.

With `Cc1ccc(S(=O)(=O)n2ccc(C=CC(=O)NO)c2)cc1` [Compound 1, (E)-N-Hydroxy-3-[1-(toluene-4-sulfonyl)-1-H-pyrrol-3-yl]-acrylamide], the EC50 in series [1] was 2.15 to 51.3 µM. The IC50 in series [2] fell in the range of 0.8 to 21.6 µM.
The corresponding values for `O=C(/C=C/c1ccn(S(=O)(=O)Cc2ccccc2)c1)NO` [Compound 2, N-Hydroxy-3-(1-phenylmethanesulfonyl-1H-1-pyrrol-3-yl)-acrylamide] are 2.15 to 51.3 µM and 0.8 to 21.6 µM.
On to `O=C(/C=C/c1ccn(S(=O)(=O)c2ccc(-c3ccccc3)cc2)c1)NO` [Compound 3, (E)-3-[1-(Biphenyl-4-sulfonyl)-1H-pyrrol-3-yl]-N-hydroxy-acrylamide], for which the EC50 in series [1] lay in the range of 2.15 to 51.3 µM. Further, in series [2], the half-maximal inhibitory concentration (IC50) was in the range of 0.8 to 21.6 µM.
Regarding `CN(C)c1ccc(S(=O)(=O)n2ccc(C=CC(=O)NO)c2)cc1` [Compound 4, (E)-3-[1-(4-Dimethylamino-benzenesulfonyl)-1H-1-pyrrol-3-yl]-N-hydroxy-acrylamide], the half-maximal effective concentration (EC50) in series [1] is 2.15 to 51.3 µM. The 50% inhibitory concentration (IC50) in series [2] was in the range of 0.8 to 21.6 µM.
The corresponding values for `Nc1ccccc1NC(=O)C=Cc1ccn(S(=O)(=O)c2ccc(-c3ccccc3)cc2)c1` [Compound 7, (E)-N-(2-Amino-phenyl)-3-[1-(biphenyl-4-sulfonyl)-1H-1-pyrrol-3-yl]-acrylamide] are 2.15 to 51.3 µM and 0.8 to 21.6 µM.
For the compound `CN(C)c1ccc(S(=O)(=O)n2ccc(/C=C/C(=O)Nc3ccccc3N)c2)cc1` [Compound 8, (E)-N-(2-Amino-phenyl)-3-[1-(4-dimethylamino-benzenesulfonyl)-1H-pyrrol-3-yl]-acrylamide], the half-maximal effective concentration (EC50) in series [1] is 2.15 to 51.3 µM. In series [2], the IC50 lay in the range of 0.8 to 21.6 µM.
In the case of `CN(CCc1cc2ccccc2[nH]1)Cc1ccc(S(=O)(=O)n2ccc(/C=C/C(=O)NO)c2)cc1` [Compound 9, (E)-N-Hydroxy-3-(1-[4-(([2-(1H-indol-2-yl)-ethyl]-methyl-amino)-methyl)-benzenesulfonyl]-1H-pyrrol-3-yl)-acrylamide], the concentration for a half-maximal effect (EC50) in series [1] lay within 2.15 to 51.3 µM. This compound also came in with a half-inhibitory concentration (IC50) in series [2] of 0.07 to 5 µM.
In turn, `O=C(/C=C/c1ccn(S(=O)(=O)c2ccc(CNCc3cccnc3)cc2)c1)NO` [Compound 11, (E)-N-Hydroxy-3-[1-(4-{[(pyridin-3-ylmethyl)-amino]-methyl}-benzenesulfonyl)-1H-pyrrol-3-yl]-acrylamide] had an IC50 in series [2] of 0.07 to 5 µM.
`O=C(/C=C/c1ccn(S(=O)(=O)c2ccc(CNCc3c[nH]c4ccccc34)cc2)c1)NO` [Compound 12, (E)-N-Hydroxy-3-[1-(4-{[(1H-indol-3-ylmethyl)-amino]-methyl}-benzenesulfonyl)-1H-pyrrol-3-yl]-acrylamide] showed a 50% inhibitory concentration (IC50) in series [2] of 0.07 to 5 µM.
In turn, `O=C(/C=C/c1ccn(S(=O)(=O)c2ccc(CNCc3ccccc3)cc2)c1)NO` [Compound 13, (E)-3-{1-[4-(Benzylamino-methyl)-benzenesulfonyl]-1H-pyrrol-3-yl}-N-hydroxy-acrylamide] yielded an IC50 in series [2] of 0.07 to 5 µM.
`CC(C)CNCc1ccc(S(=O)(=O)n2ccc(/C=C/C(=O)NO)c2)cc1` [Compound 14, (E)-N-Hydroxy-3-{1-[4-(isobutylamino-methyl)-benzenesulfonyl]-1H-pyrrol-3-yl}-acrylamide]: in series [2], the half-maximal inhibitory concentration (IC50) was in the range of 0.07 to 5 µM.
For the compound `O=C(/C=C/c1ccn(S(=O)(=O)c2ccc(CNCc3ccc4[nH]ccc4c3)cc2)c1)NO` [Compound 15, (E)-N-Hydroxy-3-[1-(4-{[(1H-indol-5-ylmethyl)-amino]-methyl}-benzenesulfonyl)-1H-pyrrol-3-yl]-acrylamide], in series [2], the IC50 was 0.07 to 5 µM.
In series [2], `O=C(/C=C/c1ccn(S(=O)(=O)c2ccc(CNCc3ccncc3)cc2)c1)NO` [Compound 16, (E)-N-Hydroxy-3-[1-(4-{[(pyridin-4-ylmethyl)-amino]-methyl}-benzenesulfonyl)-1H-pyrrol-3-yl]-acrylamide] showed an IC50 of 0.07 to 5 µM.
Compound `NCc1ccc(S(=O)(=O)n2ccc(/C=C/C(=O)NO)c2)cc1` [Compound 17, (E)-3-[1-(4-Aminomethyl-benzenesulfonyl)-1H-pyrrol-3-yl]-N-hydroxy-acrylamide] came in with a melting point of 227 to 228.6 °C. In addition, the concentration for half-maximal inhibition (IC50) in series [2] lay within 0.07 to 5 µM.
The corresponding values for `O=C(/C=C/c1ccn(S(=O)(=O)c2ccc(-c3ccncc3)cc2)c1)NO` [Compound 18, (E)-N-Hydroxy-3-[1-(4-pyridin-4-yl-benzenesulfonyl)-1H-pyrrol-3-yl]-acrylamide] are 219.3 to 221.4 °C and 0.07 to 5 µM.
On the same counts, the results for `O=C(/C=C/c1ccn(S(=O)(=O)c2ccc(-c3cn[nH]c3)cc2)c1)NO` [Compound 19, (E)-N-Hydroxy-3-{1-[4-(1H-pyrazol-4-yl)-benzenesulfonyl]-1H-pyrrol-3-yl}-acrylamide] are 203.8 to 211.9 °C and 0.07 to 5 µM.
In turn, `Nc1ccccc1NC(=O)/C=C/c1ccn(S(=O)(=O)c2ccc(-c3ccncc3)cc2)c1` [Compound 20, (E)-N-(2-Amino-phenyl)-3-[1-(4-pyridin-4-yl-benzenesulfonyl)-1H-pyrrol-3-yl]-acrylamide] had a melting point of 244.2 to 246.5 °C. The compound also had an IC50 in series [2] of 0.07 to 5 µM.
On to `Nc1ccccc1NC(=O)/C=C/c1ccn(S(=O)(=O)c2ccc(-c3cccnc3)cc2)c1` [Compound 21, (E)-N-(2-Amino-phenyl)-3-[1-(4-pyridin-3-yl-benzenesulfonyl)-1H-pyrrol-3-yl]-acrylamide], for which the melting point lay within 199.7 to 202.3 °C. This compound registered an IC50 in series [2] of 0.07 to 5 µM.
Compound `Nc1ccccc1NC(=O)C=Cc1ccn(S(=O)(=O)c2ccc(-c3cn[nH]c3)cc2)c1` [Compound 22, (E)-N-(2-Amino-phenyl)-3-{1-[4-(1H-1-pyrazol-4-yl)-benzenesulfonyl]-1H-pyrrol-3-yl}-acrylamide] had a melting point of 232.3 to 240.9 °C. In addition, the IC50 in series [2] is 0.07 to 5 µM.
On the same counts, the results for `O=C(/C=C/c1ccn(S(=O)(=O)c2cccc(-c3ccccc3)c2)c1)NO` [Compound 23, (E)-3-[1-(Biphenyl-3-sulfonyl)-1H-pyrrol-3-yl]-N-hydroxy-acrylamide] are 114 to 159.4 °C and 0.07 to 5 µM.
`O=C(/C=C/c1ccn(S(=O)(=O)c2ccc(-c3ccccn3)s2)c1)NO` [Compound 24, (E)-N-Hydroxy-3-[1-(5-pyridin-2-yl-thiophene-2-sulfonyl)-1H-pyrrol-3-yl]-acrylamide] displayed an IC50 in series [2] of 0.07 to 5 µM.
For the compound `O=C(/C=C/c1ccn(S(=O)(=O)c2ccc(-n3cccn3)cc2)c1)NO` [Compound 25, (E)-N-Hydroxy-3-[1-(4-pyrazol-1-yl-benzenesulfonyl)-1H-pyrrol-3-yl]-acrylamide], the melting point lay within 160.7 to 166.6 °C. In series [2], this compound had an IC50 of 0.07 to 5 µM.
In series [2], `Nc1ccccc1NC(=O)/C=C/c1ccn(S(=O)(=O)c2ccc(-c3ccccn3)s2)c1` [Compound 26, (E)-N-(2-Amino-phenyl)-3-[1-(5-pyridin-2-yl-thiophene-2-sulfonyl)-1H-pyrrol-3-yl]-acrylamide] yielded an IC50 of 0.07 to 5 µM.
`O=C(/C=C/c1ccn(S(=O)(=O)c2ccc(CN(CCO)CCc3cc4ccccc4[nH]3)cc2)c1)NO` [Compound 28, (E)-N-Hydroxy-3-{1-[4-({(2-hydroxy-ethyl)-[2-(1H-indol-2-yl)-ethyl]-amino}-methyl)-benzenesulfonyl]-1H-pyrrol-3-yl}-acrylamide] showed an IC50 in series [2] of 0.07 to 5 µM.
